Like-named read-outs stand apart in the source and are kept apart here.

A short description of series [1]: Comparative uptake and incorporation of halogenated amino acids in mouse brain (40 min after i.v. injection). The conditions noted are these: mouse, in vivo, iv. The format is in vivo. The procedure:
(§1) Typically, 0.75 to 1.5 MBq of L-2-[^18 F]-fluorotyrosine in 50 to 100 μl of isotonic solution were injected into the tail vein of NMRI mice.
(§2) After a defined incubation time, the animals were sacrificed and the brains were removed within 20 s and frozen in liquid nitrogen. Parts of the frontal cortex were removed (about 20 mg), weighed, homogenized in distilled water by ultrasonic treatment and, after 10 s, trichloroacetic acid (TCA) was added (final concentration >10%). The protein fraction precipitated by TCA was spun down and washed 2× with TCA solution, and the radioactivity in the combined supernatants and in the protein pellet was measured.
(§3) Results of comparative experiments on the incorporation of halogenated amino acids in mouse brain (40 min after i.v. injection) are compiled in the table which follows: […]

The subject of series [2] is mouse brain. Described as above. It counts as in vivo. The procedure:
as §1, §2, §3

Series [3] deals with cerebral proteins (frontal cortex). The series can be described thus: Fraction of radioactivity incorporated in cerebral proteins (TCA precipitation, frontal cortex) after tail vein injection. It counts as in vivo, NMRI mice. On the procedure: as §1, §2
Another series concerns brain tissue. Description: HPLC investigation of TCA supernatant for free 2-[^18 F]-fluorotyrosine in brain tissue. As to conditions: for proportion of free (unmetabolized) 2-fluorotyrosine of the total tissue activity: brain tissue supernatant, HPLC; for recovery of the activity: free plus protein-incorporated. It counts as in vivo, NMRI mice. The procedure:
as §1, §2
The supernatant was investigated by HPLC (for conditions, see Example 1) for the proportion of free 2-[^18 F]-fluorotyrosine. It emerged from this that the activity not incorporated in proteins was present almost entirely as unmetabolized 2-fluorotyrosine.

For another series, the system named is tissue. The series can be described thus: Distribution of radioactivity and metabolite analysis in tissue up to two hours after injection. The format is in vivo. An excerpt: (§4) Appropriate analysis in the striatum, the area of the brain which is highly permeated by dopaminergic nerve cells, has also ruled out the formation of catecholamines from 2-fluorotyrosine. Thus 2-[^18 F]-fluorotyrosine is an ideal tracer for the quantification of the rate of protein synthesis using a three-compartment model, which is relatively easy to handle mathematically and as is used for 2-[^18 F]-fluorodeoxyglucose in PET studies. The uptake of >1.6% of the injected dose per gram of tissue (see table below) is, moreover, adequate for PET investigations.

The subject of a further series is striatum. The series can be described thus: Analysis for catecholamine formation in the striatum. It counts as in vivo.
Description: as §4

Series [4] deals with cerebral protein synthesis. The conditions noted are these: Coenen et al., cited from earlier work.
The subject of series [5] is mouse brain. The conditions noted are these: 40 min, footnote * Literature data; cited from earlier work.
The mark [6] stands for this setting: mouse brain, 40 min after i.v. injection, read-out: Uptake.
Setting [7] is: mouse brain, 40 min after i.v. injection.

In the case of `NC(Cc1ccccc1[18F])C(=O)O` (stereo not shown) [2 - ^18 FPhe], in series [1], the tissue uptake at 40 min amounted to 2 ± 0.4 %ID/g. In addition, the Incorporation in the series with mouse brain [2] (mouse, in vivo, iv) is given as 11 ± 2 % of cerebral activity.
Take `N[C@@H](Cc1ccc(O)cc1[18F])C(=O)O` [2 - ^18 FTyr, 2-[^18 F]-fluorotyrosine]: the tissue uptake at 40 min in series [1] (setting [6]) was 1.3 ± 0.005 %ID/g; in series [1] (refers to table, read-out: uptake of the injected dose per gram of tissue), more than 1.6 %ID/g. Moreover, in the series with mouse brain [2] (after 40 min), the “cerebral incorporation rate (in words)” value was “comparable to that for the natural amino acids methionine and phenylalanine”. The Incorporation in the series with mouse brain [2] (setting [7]) is listed as 62 ± 3 % of cerebral activity. Moreover, the figures for the “fraction incorporated in cerebral proteins” value in series [3] (20 min after injection) and in series [3] (60 min after injection) were 44±3% and 84%, respectively. For the same compound, the “incorporation in cerebral proteins (in words)” value in series [3] (>1 h after the injection) is reported as “almost quantitative”. For the same compound, the “proportion of free (unmetabolized) 2-fluorotyrosine of the total tissue activity” value is 51±3% with brain tissue (20 min) and 11±2% in the series with brain tissue (60 min). The “recovery of the activity” value amounted to 95±6% in the series with brain tissue (20 min) and 95±4% in the series on brain tissue (60 min). Further, the “chemical form of the activity in brain tissue” value with brain tissue (HPLC of supernatant) was “present in brain tissue virtually only in two chemical forms”. Also, in the series with tissue (in vivo), the “influence from redistributed labeled metabolites from the blood” value was “can be ruled out”. In addition, the “distribution of radioactivity in tissue” value with tissue (up to two hours after injection) is “distributed only over the free fluorinated amino acid and the portion incorporated in protein”. Also, the formation of catecholamines result with striatum is reported as “ruled out”.
`NC(Cc1ccccc1[75Br])C(=O)O` (stereo not shown) [2 - ^75 BrPhe] gave a tissue uptake at 40 min in series [1] of 2.4 ± 0.4 %ID/g. Further, the Incorporation in the series on mouse brain [2] (mouse, in vivo, iv) is 15 ± 1 % of cerebral activity.
For the compound `N[C@@H](Cc1ccc(O)c(F)c1)C(=O)O` [3 - ^18 FTyr, 3-fluorotyrosine], the tissue uptake at 40 min in series [1] (setting [6]) is 0.8 ± 0.005 %ID/g. Moreover, the Incorporation with mouse brain [2] (setting [7]) is 26 ± 1 % of cerebral activity.
On to `C[C@](N)(Cc1ccc(O)c([123I])c1)C(=O)O` [3 - ^123 I-α-MeTyr, 3-iodo-α-methyltyrosine], for which the tissue uptake at 40 min in series [1] is 0.8 ± 0.1 %ID/g. Moreover, in the series on mouse brain [2] (mouse, in vivo, iv), the Incorporation was 18 ± 1 % of cerebral activity.
The corresponding values for `NC(Cc1ccc(O)c([123I])c1)C(=O)O` (stereo not shown) [3 - ^123 ITyr] are 0.2 ± 0.005 %ID/g and 13 ± 4 % of cerebral activity.
On to `NC(Cc1ccc([18F])cc1)C(=O)O` (stereo not shown) [4 - ^18 FPhe, p-[^18 F]-fluorophenylalanine], for which the tissue uptake at 40 min in series [1] came to 1.5 ± 0.3 %ID/g. For the same compound, the Incorporation with mouse brain [2] (mouse, in vivo, iv) is listed as 20 ± 2 % of cerebral activity. For the same compound, the “incorporation rate in cerebral protein (in words)” value in series [4] is reported as “relatively low”. In addition, in series [4] (animal model), the “radioactivity in cerebral tissue assigned to an unidentified metabolite pool” value is given as “about 20%”.
Take `NC(Cc1ccc([75Br])cc1)C(=O)O` (stereo not shown) [4 - ^75 BrPhe]: in series [1] (setting [6]), the tissue uptake at 40 min came out at 2 ± 0.4 %ID/g. In addition, in the series with mouse brain [2] (setting [7]), the Incorporation is 17 ± 5 % of cerebral activity.
`CC(C)C[C@H](N)C(=O)O` [^14 C-Leu, leucine]: the Incorporation in the series with mouse brain [5] is 85 ± 4 % of cerebral activity.
With `CSCC[C@H](N)C(=O)O` [^14 C-Met, methionine], in the series on mouse brain [2] (mouse, in vivo, iv), the Incorporation is given as 57 ± 3 % of cerebral activity.
Take `N[C@@H](Cc1ccccc1)C(=O)O` [^14 C-Phe, phenylalanine]: the Incorporation in the series with mouse brain [2] (setting [7]) is 63 ± 2 % of cerebral activity.

The record behind these values is patent US4925651A, “Radiofluoro-tyrosine derivatives, the preparation and use thereof” (priority 1988, dated 1990).
